Assay results taken from article PMC8653682, “Anti-Helicobacter pylori Compounds from Oliveria decumbens Vent. through Urease Inhibitory In-vitro and In-silico Studies” (Iranian Journal of Pharmaceutical Research : IJPR, 2021).
Converted amounts (≈) assume the structure as drawn. Like-named read-outs stand apart in the source and are kept apart here.

Assays:
Jack bean urease = biological target: T1, Jack bean urease (Canavalia ensiformis, UniProt P07374); assay: biochemical; type: biochemical
T1 construct: purchased Sigma-Aldrich
T1 sequence (P07374 whole entry, looked up): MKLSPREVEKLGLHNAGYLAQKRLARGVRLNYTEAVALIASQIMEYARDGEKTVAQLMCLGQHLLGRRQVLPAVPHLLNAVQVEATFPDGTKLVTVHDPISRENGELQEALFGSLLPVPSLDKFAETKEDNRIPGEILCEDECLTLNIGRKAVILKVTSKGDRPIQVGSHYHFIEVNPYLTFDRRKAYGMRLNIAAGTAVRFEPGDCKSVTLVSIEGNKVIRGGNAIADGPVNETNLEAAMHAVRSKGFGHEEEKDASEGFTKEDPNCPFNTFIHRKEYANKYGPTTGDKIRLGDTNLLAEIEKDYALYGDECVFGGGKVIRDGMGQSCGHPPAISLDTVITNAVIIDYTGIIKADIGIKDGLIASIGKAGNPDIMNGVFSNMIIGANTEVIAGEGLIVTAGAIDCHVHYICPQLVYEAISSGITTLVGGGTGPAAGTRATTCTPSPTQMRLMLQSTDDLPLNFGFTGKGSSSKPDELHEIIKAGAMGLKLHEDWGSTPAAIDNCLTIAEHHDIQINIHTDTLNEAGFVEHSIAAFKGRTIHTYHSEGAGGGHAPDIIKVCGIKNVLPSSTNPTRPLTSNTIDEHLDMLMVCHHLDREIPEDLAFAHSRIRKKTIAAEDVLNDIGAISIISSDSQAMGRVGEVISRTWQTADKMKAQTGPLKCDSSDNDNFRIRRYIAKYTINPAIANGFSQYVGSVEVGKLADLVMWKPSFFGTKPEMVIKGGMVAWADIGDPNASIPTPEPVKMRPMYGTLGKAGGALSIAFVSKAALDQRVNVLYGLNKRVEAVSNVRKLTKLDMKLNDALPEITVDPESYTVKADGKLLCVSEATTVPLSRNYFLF
Procedure: Urease inhibitory activity was evaluated based on Tanaka et al. report ([18]). Jack bean urease (Sigma-Aldrich, Germany) was used as a surrogate for H. pylori urease. Each well of a 96-well plate contained 25 μL jack bean urease (6U, Sigma-Aldrich) and 25 μL different concentrations of tested materials that were prepared in phosphate buffer (PBS, pH 6.8 ) and DMSO 1% as a co-solvent. After 30 min incubation at room temperature, 200 μL of a stock solution composed of PBS (100 mM), urea (150 mM), and phenol red were added to each well. The absorbance changes were measured at 570 nm by a microplate reader. Hydroxyurea was used as the positive control ([18]).

bacteria = test system: bacteria; parameters: method as in earlier work; conditions: combination with norfloxacin, ofloxacin and ciprofloxacin; ref 42 (Falcão‐Silva et al.); cited from earlier work
[1] = test system: Helicobacter pylori strain RIGLD-HC180; assay: Anti-Helicobacter pylori activity by agar dilution method; type: cell-based; conditions: RIGLDHC180, 72 h, tested 50 to 2000 μg/mL, read-out: MIC for the growth of Helicobacter pylori
Procedure: Anti-Helicobacter pylori activity of the samples was investigated by an agar dilution method according to our previous study ([17]). […] The Agar dilution method has been standardized previously as an appropriate method to determine minimum inhibitory concentrations (MIC) of water-insoluble and colored plant extracts. […] Growth control plates were included in each experiment. […] All the experiments were performed in triplicate. Plates, including amoxicillin, were used as a positive control ([17]).

[2] = test system: Staphylococcus aureus ATCC 6538; assay: Antibacterial activity by disc diffusion method, S. aureus; type: cell-based; conditions: extract/fractions 500 µg/disc, ciprofloxacin 5 µg/disc, penicillin 10 µg/disc
Procedure: (§1) Briefly, overnight cultures of bacteria were used to prepare a bacterial inoculum in sterile normal saline. The bacterial inoculum was standardized to the turbidity of 0.5 McFarland (the density equivalent to 1.5 × 10^8 cfu/mL). The surface of Mueller-Hinton (MH) agar plates was covered by 100 µL of diluted bacterial suspension containing 5 ×10^5 cfu. Different concentrations of the plant extract or fraction were prepared. Sterile blank discs (6.4 mm diameter) containing different concentrations of the plant extract or fractions (15 μL) were placed on the agar plates. The mean inhibition zone diameter was measured after overnight incubation at 37 °C.

[3] = test system: Staphylococcus epidermidis ATCC 12229; assay: Antibacterial activity by disc diffusion method, S. epidermidis; type: cell-based; conditions: extract/fractions 500 µg/disc, ciprofloxacin 5 µg/disc, penicillin 10 µg/disc
Procedure: as §1

[4] = test system: Escherichia coli ATCC 8739; assay: Antibacterial activity by disc diffusion method, E. coli; type: cell-based; conditions: extract/fractions 500 µg/disc, ciprofloxacin 5 µg/disc, penicillin 10 µg/disc
Procedure: as §1

Compound: O=C(/C=C/c1ccc(O)cc1)OC[C@H]1O[C@@H](Oc2c(-c3ccc(O)cc3)oc3cc(O)cc(O)c3c2=O)[C@H](O)[C@@H](O)[C@@H]1O [Tiliroside, Kaempferol-3-O-(6''-O-trans-coumaryl) glucoside]
- IC50 (Jack bean urease): 0.45 ± 0.05 mM
- Lowering of antibiotic MIC values in combination with tiliroside (bacteria): 2-16 fold

Compound: CC1(C)S[C@@H]2[C@H](NC(=O)[C@H](N)c3ccc(O)cc3)C(=O)N2[C@H]1C(=O)O [Amoxicillin, amoxicillin]
- MIC [1]: 0.5 µg/mL (≈ 1.37 µM)

Compound: penicillin
- Inhibition zone, S. aureus [2]: 24 mm
- Inhibition zone, S. epidermidis [3]: 26 mm
- Inhibition zone, E. coli [4]: 10 mm

Compound: Cc1ccc(C(C)C)cc1O [Carvacrol]
- IC50 (Jack bean urease): 0.7 ± 0.01 mM

Compound: NC(=O)NO [Hydroxyurea]
- IC50 (Jack bean urease; isolated compounds, jack bean urease, read-out: Urease inhibitory IC50 (mM) ± SD): 0.78 ± 0.01 mM
- Urease inhibitory IC50 (µg/mL) ± SD (Jack bean urease; total extract and fractions, jack bean urease): 59.51 ± 0.01 µg/mL

Compound: Cc1ccc(C(C)C)c(O)c1 [Thymol]
- IC50 (Jack bean urease): 1.33 ± 0.06 mM
